How the values were obtained:
[1] = biological target: T1, purified human autoBACE-2 (Homo sapiens, UniProt Q9Y5Z0); experiment: BACE-2 Assay (BACE-HTRF assay); type: biochemical; settings: Ki calculated from IC50 using the Cheng-Prusoff equation; QSY7-EISEVNLDAEFC-Eu-amide substrate 200 nM, pH 5.0; read-out: BACE2 Ki
T1 sequence (Q9Y5Z0 63-473 limits assumed): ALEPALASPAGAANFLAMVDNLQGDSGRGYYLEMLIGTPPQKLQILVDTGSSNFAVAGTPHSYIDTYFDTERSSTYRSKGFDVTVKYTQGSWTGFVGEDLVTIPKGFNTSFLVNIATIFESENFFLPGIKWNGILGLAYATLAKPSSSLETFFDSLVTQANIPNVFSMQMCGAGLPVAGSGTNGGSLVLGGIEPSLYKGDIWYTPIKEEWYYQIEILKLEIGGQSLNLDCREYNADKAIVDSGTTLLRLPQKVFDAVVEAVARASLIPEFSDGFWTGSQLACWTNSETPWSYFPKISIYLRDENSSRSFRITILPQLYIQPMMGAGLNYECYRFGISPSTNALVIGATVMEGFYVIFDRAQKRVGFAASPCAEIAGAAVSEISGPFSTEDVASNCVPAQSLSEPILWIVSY
Description: Inhibitor ICsos at purified human autoBACE-2 are determined in a time-resolved endpoint proteolysis assay that measures hydrolysis of the QSY7-EISEVNLDAEFC-Eu-amide FRET peptide substrate (BACE-HTRF assay). BACE-mediated hydrolysis of this peptide results in an increase in relative fluorescence (RFU) at 620 nm after excitation with 320 nm light. Inhibitor compounds, prepared at 3× the desired final concentration in 1×BACE assay buffer (20 mM sodium acetate pH 5.0, 10% glycerol, 0.1% Brij-35) supplemented with 7.5% DMSO are preincubated with an equal volume of autoBACE-2 enzyme diluted in 1×BACE assay buffer (final enzyme concentration 1 nM) in black 384-well NUNC plates for 30 minutes at 30° C. The assay is initiated by addition of an equal volume of the QSY7-EISEVNLDAEFC-Eu-amide substrate (200 nM final concentration, […]) prepared in 1×BACE assay buffer supplemented with 7.5% DMSO and incubated for 90 minutes at 30° C. DMSO is present at 5% final concentration in the assay. Following laser excitation of sample wells at 320 nm, the fluorescence signal at 620 nm is collected for 400 ms following a 50 μs delay on a RUBYstar HTRF plate reader (BMG Labtechnologies). Raw RFU data is normalized to maximum (1.0 nM BACE/DMSO) and minimum (no enzyme/DMSO) RFU values. IC50s are determined by nonlinear regression analysis (sigmoidal dose response, variable slope) of percent inhibition data with minimum and maximum values set to 0 and 100 percent respectively. Similar IC50s are obtained when using raw RFU data. The Ki values are calculated from the IC50 using the Cheng-Prusoff equation.

[2] = biological target: soluble human BACE1 catalytic domain (Homo sapiens, UniProt P56817); experiment: BACE1 HTRF FRET Assay; type: biochemical; settings: Ki calculated from IC50 using the Cheng-Prusoff equation; QSY7-APPswe-Eu substrate 200 nM, pH 5.0
Sequence of soluble human BACE1 catalytic domain (P56817 75-416 limits assumed): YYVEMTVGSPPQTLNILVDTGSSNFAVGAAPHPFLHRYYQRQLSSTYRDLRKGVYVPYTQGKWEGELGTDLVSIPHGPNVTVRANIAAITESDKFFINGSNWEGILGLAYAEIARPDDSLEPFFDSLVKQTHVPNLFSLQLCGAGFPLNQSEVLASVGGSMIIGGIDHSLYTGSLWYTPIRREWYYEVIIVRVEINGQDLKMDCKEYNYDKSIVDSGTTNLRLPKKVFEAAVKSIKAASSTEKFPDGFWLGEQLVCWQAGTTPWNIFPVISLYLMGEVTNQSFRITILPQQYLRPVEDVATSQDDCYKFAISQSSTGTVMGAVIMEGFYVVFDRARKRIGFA
Description: Na^+-Acetate pH 5.0; 1% Brij-35; Glycerol; Dimethyl Sulfoxide (DMSO); Recombinant human soluble BACE1 catalytic domain (>95% pure); APP Swedish mutant peptide substrate (QSY7-APP^swe-Eu): QSY7-EISEVNLDAEFC-Europium-amide.
A homogeneous time-resolved FRET assay can be used to determine IC50 values for inhibitors of the soluble human BACE1 catalytic domain. This assay monitors the increase of 620 nm fluorescence that resulted from BACE1 cleavage of an APPswedish APP^swe mutant peptide FRET substrate (QSY7-EISEVNLDAEFC-Europium-amide). This substrate contains an N-terminal QSY7 moiety that serves as a quencher of the C-terminal Europium fluorophore (620 nm Em). In the absence of enzyme activity, 620 nm fluorescence is low in the assay and increased linearly over 3 hours in the presence of uninhibited BACE1 enzyme. Inhibition of BACE1 cleavage of the QSY7-APP^swe-Eu substrate by inhibitors is manifested as a suppression of 620 nm fluorescence.
Varying concentrations of inhibitors at 3× the final desired concentration in a volume of 10 ul are preincubated with purified human BACE1 catalytic domain (3 nM in 10 μl) for 30 minutes at 30° C. in reaction buffer containing 20 mM Na-Acetate pH 5.0, 10% glycerol, 0.1% Brij-35 and 7.5% DSMO. Reactions are initiated by addition of 10 μl of 600 nM QSY7-APP^swe-Eu substrate (200 nM final) to give a final reaction volume of 30 μl in a 384 well Nunc HTRF plate. The reactions are incubated at 30° C. for 1.5 hours. The 620 nm fluorescence is then read on a Rubystar HTRF plate reader (BMG Labtechnologies) using a 50 millisecond delay followed by a 400 millisecond acquisition time window. Inhibitor IC50 values are derived from non-linear regression analysis of concentration response curves. Ki values are then calculated from IC50 values using the Cheng-Prusoff equation using a previously determined […] for the QSY7-APP^swe-Eu substrate at BACE1.

Ki [1] | Ki [2] | SMILES
2 nM | 8 nM | CC1(C)C(=N)N[C@@]2(CCOc3ccc(NC(=O)c4ccc(Cl)cn4)cc32)CS1(=O)=O [Example B-1]
28 nM | 58 nM | COc1ccc(C(=O)Nc2ccc3c(c2)[C@]2(CCO3)CS(=O)(=O)C(C)(C)C(=N)N2)nc1 [Example B-2]
59 nM | 391 nM | COCC(=O)Nc1ccc2c(c1)[C@]1(CCO2)CS(=O)(=O)C(C)(C)C(=N)N1 [Example B-3]
115 nM | 1280 nM | CC1(C)C(=N)N[C@@]2(CCOc3ccc(NC(=O)C(F)F)cc32)CS1(=O)=O [Example B-4]
1 nM | 3 nM | CC1(C)C(=N)N[C@@]2(CCOc3ccc(NC(=O)c4ccn(C(F)F)n4)cc32)CS1(=O)=O [Example C-1]
3 nM | 18 nM | Cc1nc(C(=O)Nc2ccc3c(c2)[C@]2(CCO3)CS(=O)(=O)C(C)(C)C(=N)N2)co1 [Example C-2]
14 nM | 3 nM | C#CCOc1cnc(C(=O)Nc2ccc3c(c2)[C@]2(CCO3)CS(=O)(=O)C(C)(C)C(=N)N2)cn1 [Example C-3]
5 nM | 3 nM | CC1(C)C(=N)N[C@@]2(CCOc3ccc(NC(=O)c4cnsn4)cc32)CS1(=O)=O [Example C-4]
49 nM | 223 nM | CC1(C)C(=N)N[C@@]2(CCOc3ccc(NC(=O)c4cc5ccccn5n4)cc32)CS1(=O)=O [Example C-5]
50 nM | 10 nM | CC1(C)C(=N)N[C@@]2(CCOc3ccc(NC(=O)c4ccc(C(F)(F)F)cn4)cc32)CS1(=O)=O [Example C-6]
4 nM | 47 nM | Cc1nc(C(=O)Nc2ccc3c(c2)[C@]2(CCO3)CS(=O)(=O)C(C)(C)C(=N)N2)no1 [Example C-7]
157 nM | 121 nM | CC1(C)C(=N)N[C@@]2(CCOc3ccc(NC(=O)c4cn5cc(C#N)ccc5n4)cc32)CS1(=O)=O [Example C-8]
5 nM | 33 nM | CC1(C)C(=N)N[C@@]2(CCOc3ccc(NC(=O)c4ccc(F)cn4)cc32)CS1(=O)=O [Example C-9]
22 nM | 8 nM | CC1(C)C(=N)N[C@@]2(CCOc3ccc(NC(=O)c4ccc(OC(F)F)cn4)cc32)CS1(=O)=O [Example C-10]
41 nM | 10 nM | CC1(C)C(=N)N[C@@]2(CCOc3ccc(NC(=O)c4ccc(OC(F)(F)F)cn4)cc32)CS1(=O)=O [Example C-11]
98 nM | 45 nM | CC1(C)C(=N)N[C@@]2(CCOc3ccc(NC(=O)c4cnc(OCCF)cn4)cc32)CS1(=O)=O [Example C-12]
8 nM | 14 nM | CC1(C)C(=N)N[C@@]2(CCOc3ccc(NC(=O)c4ccc(OCF)cn4)cc32)CS1(=O)=O [Example C-13]
1 nM | 15 nM | Cc1cn(C)nc1C(=O)Nc1ccc2c(c1)[C@]1(CCO2)CS(=O)(=O)C(C)(C)C(=N)N1 [Example C-14]
9 nM | 3 nM | CC1(C)C(=N)N[C@@]2(CCOc3ccc(NC(=O)c4ccc(C#N)cn4)cc32)CS1(=O)=O [Example C-15]
98 nM | 107 nM | CC1(C)C(=N)N[C@@]2(CCOc3ccc(NC(=O)c4ncc(C(F)(F)F)cn4)cc32)CS1(=O)=O [Example C-16]
2 nM | 8 nM | CC1(C)C(=N)N[C@@]2(CCOc3ccc(NC(=O)c4ncc(Cl)cc4F)cc32)CS1(=O)=O [Example C-17]

Ki [1] | Ki [2] | SMILES
45 nM | 3 nM | CC#CCOc1ccc(C(=O)Nc2ccc3c(c2)[C@]2(CCO3)CS(=O)(=O)C(C)(C)C(=N)N2)nc1 [Example C-18]
48 nM | 7 nM | C#CCOc1ccc(C(=O)Nc2ccc3c(c2)[C@]2(CCO3)CS(=O)(=O)C(C)(C)C(=N)N2)nc1 [Example C-19]
3 nM | 20 nM | COc1cnc(C(=O)Nc2ccc3c(c2)[C@]2(CCO3)CS(=O)(=O)C(C)(C)C(=N)N2)c(C)c1 [Example C-20]
20 nM | 40 nM | COc1cnc(C(=O)Nc2ccc3c(c2)[C@]2(CCO3)CS(=O)(=O)C(C)(C)C(=N)N2)c(C)n1 [Example C-21]
3 nM | 2 nM | Cc1cc(C#N)cnc1C(=O)Nc1ccc2c(c1)[C@]1(CCO2)CS(=O)(=O)C(C)(C)C(=N)N1 [Example C-22]
46 nM | 52 nM | COc1cnc(C(=O)Nc2ccc3c(c2)[C@]2(CCO3)CS(=O)(=O)C(C)(C)C(=N)N2)cn1 [Example C-23]
184 nM | 39 nM | CC1(C)C(=N)N[C@@]2(CCOc3ccc(NC(=O)c4cnc(C(F)(F)F)cn4)cc32)CS1(=O)=O [Example C-24]
7 nM | 23 nM | CC1(C)C(=N)N[C@@]2(COCc3ccc(NC(=O)c4ccc(Cl)cn4)cc32)CS1(=O)=O [Example D-1]
512 nM | 644 nM | CC1(C)C(=N)N[C@@]2(COCc3ccc(NC(=O)c4ncc(C(F)(F)F)cn4)cc32)CS1(=O)=O [Example E-1]
200 nM | 1200 nM | CC1(C)C(=N)N[C@@]2(COCc3ccc(NC(=O)c4cc5ccccn5n4)cc32)CS1(=O)=O [Example E-2]
175 nM | 50 nM | CC1(C)C(=N)N[C@@]2(COCc3ccc(NC(=O)c4ccc(OC(F)(F)F)cn4)cc32)CS1(=O)=O [Example E-3]
72 nM | 20 nM | C#CCOc1cnc(C(=O)Nc2ccc3c(c2)[C@]2(COC3)CS(=O)(=O)C(C)(C)C(=N)N2)cn1 [Example E-4]
8 nM | 6 nM | Cc1cc(C#N)cnc1C(=O)Nc1ccc2c(c1)[C@]1(COC2)CS(=O)(=O)C(C)(C)C(=N)N1 [Example E-5]
155 nM | 41 nM | CC1(C)C(=N)N[C@@]2(COCc3ccc(NC(=O)c4ccc(C(F)(F)F)cn4)cc32)CS1(=O)=O [Example E-6]
2 nM | 12 nM | CC1(C)C(=N)N[C@@]2(COCc3ccc(NC(=O)c4ccn(C(F)F)n4)cc32)CS1(=O)=O [Example E-7]
12 nM | 281 nM | Cc1nc(C(=O)Nc2ccc3c(c2)[C@]2(COC3)CS(=O)(=O)C(C)(C)C(=N)N2)no1 [Example E-8]
23 nM | 171 nM | CC1(C)C(=N)N[C@@]2(COCc3ccc(NC(=O)c4cnsn4)cc32)CS1(=O)=O [Example E-9]
29 nM | 118 nM | COc1ccc(C(=O)Nc2ccc3c(c2)[C@]2(COC3)CS(=O)(=O)C(C)(C)C(=N)N2)nc1 [Example E-10]
5 nM | 59 nM | COc1cnc(C(=O)Nc2ccc3c(c2)[C@]2(COC3)CS(=O)(=O)C(C)(C)C(=N)N2)c(C)c1 [Example E-11]
2950 nM | 556 nM | CC1(C)C(=N)N[C@@]2(COCc3ccc(NC(=O)c4cn5cc(C#N)ccc5n4)cc32)CS1(=O)=O [Example E-12]
